ChEMBL document CHEMBL1201862, “PubChem BioAssay data set” (2004)
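How tested: cells in 96-well plates exposed to compound for 48 hours at five concentrations. GI50 is the concentration that inhibits growth by half.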 The source made the active and inactive calls. No stated cut-off is given here; in the data, active = GI50 up to about 1.1 µM and inactive = higher.

Legend:
Experiment in all cases: inhibition of tumour cell growth, NCI panel, 48 h
[1] = test system: RXF 393
[2] = test system: SW-620
[3] = test system: COLO 205
[4] = test system: Hs-578T
[5] = test system: UACC-62
[6] = test system: A498
[7] = test system: U-251
[8] = test system: HOP-62
[9] = test system: SK-MEL-28
[10] = test system: DU-145
[11] = test system: HCT-116
[12] = test system: SN12C
[13] = test system: OVCAR-3
[14] = test system: SNB-19
[15] = test system: NCI-H522
[16] = test system: TK-10
[17] = test system: SNB-75
[18] = test system: SF-539
[19] = test system: 786-0
[20] = test system: SR

Compound	GI50 [1]	GI50 [2]	GI50 [3]	GI50 [4]	GI50 [5]	GI50 [6]	GI50 [7]	GI50 [8]	GI50 [9]	GI50 [10]	GI50 [11]	GI50 [12]	GI50 [13]	GI50 [14]	GI50 [15]	GI50 [16]	GI50 [17]	GI50 [18]	GI50 [19]	GI50 [20]
CC[N+](C)(CC)CCN1C(=O)c2ccccc2S1(=O)=O	> 100 µM (inactive)	> 100 µM (inactive)	> 100 µM (inactive)	> 100 µM (inactive)	> 100 µM (inactive)	> 100 µM (inactive)	> 100 µM (inactive)	> 100 µM (inactive)	> 100 µM (inactive)	> 100 µM (inactive)	> 100 µM (inactive)	> 100 µM (inactive)	> 100 µM (inactive)	> 100 µM (inactive)	> 100 µM (inactive)	> 100 µM (inactive)	> 100 µM (inactive)	> 100 µM (inactive)	> 100 µM (inactive)	
CC1C(=O)N=C2C(=CN(Cc3ccccc3)c3ccccc32)C(=O)N1C (configuration not stated)	> 100 µM (inactive)	> 100 µM (inactive)	> 100 µM (inactive)		> 100 µM (inactive)	> 100 µM (inactive)	> 100 µM (inactive)		> 100 µM (inactive)	> 100 µM (inactive)	> 100 µM (inactive)	> 100 µM (inactive)	> 100 µM (inactive)	> 100 µM (inactive)	29.1 µM (inactive)	> 100 µM (inactive)	> 100 µM (inactive)	> 100 µM (inactive)	> 100 µM (inactive)	4.26 µM (inactive)
CN1C(=O)C(C(=O)Nc2ccccn2)C2C[C@@]1(C)Oc1ccccc12 (some centres not stated)	> 100 µM (inactive)	> 100 µM (inactive)	> 100 µM (inactive)	> 100 µM (inactive)	12 µM (inactive)	11.1 µM (inactive)	> 100 µM (inactive)	> 100 µM (inactive)	> 100 µM (inactive)	> 100 µM (inactive)	> 100 µM (inactive)		> 100 µM (inactive)	> 100 µM (inactive)	> 100 µM (inactive)	> 100 µM (inactive)	> 100 µM (inactive)		> 100 µM (inactive)	
CC(C)(Cl)C(Br)CC/C(=C/CBr)CBr.CC(C)(Cl)C(Br)CC/C(=C\CBr)CBr (configuration not stated)	4.22 µM (inactive)	2.3 µM (inactive)	2.32 µM (inactive)	4.69 µM (inactive)	5.01 µM (inactive)	8.63 µM (inactive)	2 µM (inactive)	5.93 µM (inactive)	3.2 µM (inactive)	8.05 µM (inactive)	1.79 µM (inactive)	2.49 µM (inactive)	2.45 µM (inactive)	4.12 µM (inactive)	1.68 µM (inactive)	4.1 µM (inactive)	2.48 µM (inactive)	2.47 µM (inactive)	1.59 µM (inactive)	
Cc1c(C(=O)O)sc2nc[nH]c(=O)c12	> 100 µM (inactive)	> 100 µM (inactive)	> 100 µM (inactive)	22.6 µM (inactive)	> 100 µM (inactive)		> 100 µM (inactive)	> 100 µM (inactive)	> 100 µM (inactive)	> 100 µM (inactive)	> 100 µM (inactive)	> 100 µM (inactive)	> 100 µM (inactive)	> 100 µM (inactive)	> 100 µM (inactive)	> 100 µM (inactive)	49.8 µM (inactive)	> 100 µM (inactive)	> 100 µM (inactive)	
Cc1cc2[nH]c3c(C#N)c4c(c(=O)n3c2cc1C)CCCC4		> 100 µM (inactive)	> 100 µM (inactive)	86.1 µM (inactive)	> 100 µM (inactive)	> 100 µM (inactive)	40.2 µM (inactive)		> 100 µM (inactive)	> 100 µM (inactive)	> 100 µM (inactive)	> 100 µM (inactive)	> 100 µM (inactive)	31 µM (inactive)	> 100 µM (inactive)	> 100 µM (inactive)		> 100 µM (inactive)	> 100 µM (inactive)	
C=C(CN(C)C)C(=O)c1ccccc1C	12.9 µM (inactive)	16.1 µM (inactive)	15.5 µM (inactive)		28.2 µM (inactive)	> 100 µM (inactive)	> 100 µM (inactive)	> 100 µM (inactive)	9.89 µM (inactive)	> 100 µM (inactive)	24.8 µM (inactive)	46.9 µM (inactive)	33.1 µM (inactive)	> 100 µM (inactive)	5.69 µM (inactive)	> 74.6 µM (inactive)	> 71.6 µM (inactive)	> 40.4 µM (inactive)	16.9 µM (inactive)	14.2 µM (inactive)
O=C1N[C@H]2[C@H](O)[C@H](O)[C@@H](O)[C@H](O)[C@@H]2c2cc3c(c(O)c21)OCO3 [PANCRATISTATIN]	0.0434 µM (active)	0.0386 µM (active)	0.0288 µM (active)		0.0436 µM (active)	0.0583 µM (active)	0.0339 µM (active)	0.0449 µM (active)	0.0414 µM (active)	0.0306 µM (active)	0.0297 µM (active)	0.0365 µM (active)	0.0376 µM (active)	0.0301 µM (active)	0.0326 µM (active)	0.65 µM (active)	0.0301 µM (active)	0.037 µM (active)	1.58 µM (inactive)	0.106 µM (active)
CC(C)(CCCCC(C)(C)[N+](C)(C)C)[N+](C)(C)C		> 100 µM (inactive)	> 100 µM (inactive)	> 100 µM (inactive)			> 100 µM (inactive)	> 100 µM (inactive)	> 100 µM (inactive)		> 100 µM (inactive)	> 100 µM (inactive)		> 100 µM (inactive)	> 100 µM (inactive)	> 100 µM (inactive)	> 100 µM (inactive)	> 100 µM (inactive)	> 100 µM (inactive)	> 100 µM (inactive)
CC(=O)c1csc2c1C(=O)c1scc(C(C)=O)c1C2=O	2.13 µM (inactive)	1.94 µM (inactive)	1.97 µM (inactive)	2.74 µM (inactive)	1.98 µM (inactive)	1.54 µM (inactive)	1.43 µM (inactive)	1.8 µM (inactive)	1.97 µM (inactive)	1.87 µM (inactive)	2.15 µM (inactive)	1.7 µM (inactive)	0.231 µM (active)	1.8 µM (inactive)	0.52 µM (active)	2.54 µM (inactive)	2.03 µM (inactive)	1.82 µM (inactive)	2.05 µM (inactive)	
c1ccc(C/C(=N\Nc2nc3ccccc3[nH]2)c2ccccn2)cc1	0.166 µM (active)	< 0.01 µM (active)	< 0.01 µM (active)	0.879 µM (active)	0.147 µM (active)	0.217 µM (active)	< 0.0221 µM (active)	< 0.0232 µM (active)	0.231 µM (active)	0.291 µM (active)	< 0.01 µM (active)	0.0295 µM (active)	< 0.01 µM (active)	0.254 µM (active)	< 0.01 µM (active)		0.403 µM (active)	0.196 µM (active)	0.0316 µM (active)	
